Results as given in US8933233B2, “1,3,4-oxadiazole and 1,3,4-thiadiazole β-lactamase inhibitors” (priority 2012, dated 2015).
Structures can show the parent of a compound that is named as a salt.

tested on: bacterial strains that express the class D cephalosporinase OXA-15; experiment: Synergy MIC / standard BLI potentiation MIC assay, strains expressing OXA-15; format: cell-based, E. coli; settings: in presence of a β-lactam; comparator Avibactam (CCC)
Procedure: Unless otherwise indicated, the activity of the BLI compounds can be described by the MIC value obtained from a Synergy MIC assay or a BLI potentiation assay (e.g as described herein), both of which are run in the presence of a β-lactam.
The experimental protocol was performed according to Clinical and Laboratory Standards Institute (CLSI) guidelines with modifications as described below (CLSI guidelines can be derived from the CLSI document M07-A9 published in January 2012: “Methods for Dilution Antimicrobial Susceptibility Tests for Bacteria That Grow Aerobically; Approved Standard-Ninth Edition”).
To prepare for MIC testing, frozen glycerol stocks of clinical isolates (Klebsiella pneumoniae, Eschericia coli, Enterobacter spp, Citrobacter spp, or Pseudomonas aeruginosa) were used to streak for isolated colonies on rich, non-selective, tryptic soy agar containing 5% sheep's blood (TSAB). Frozen glycerol stocks of laboratory engineered, isogenic E. coli strains, which contain cloned β-lactamase expressing plasmids were used to streak for isolated colonies on rich, selective LB agar supplemented with 25 μg/mL tetracycline to maintain the plasmid. All strains were incubated at 37° C. for 18-24 hrs.
On the day of testing, primary cultures were started by scraping off 5-10 colonies from the TSAB plates containing clinical strains or the tetracycline supplemented LB plates containing engineered strains. The clinical strain material was suspended in ˜5 mL of cation adjusted Mueller Hinton Broth (CAMHB) in 14 mL culture tubes. The engineered strain material was suspended in CAMHB (supplemented with 25 μg/mL tetracycline) in 14 mL culture tubes. All strains were incubated at 37° C. with aeration (200 rpm) for ˜2 hrs until the optical density at 600 nm (OD600) was ≧0.1.
The two compound components of the assay were each diluted in CAMHB and added to the 96-well broth microdilution assay plates. 50 μL of the β-lactam was added to each well of the assay plate in 2-fold dilutions with final concentrations ranging from 128 to 0.13 μg/mL. 25 μL of the BLI compound was added to all wells in the broth microdilution plates at a final concentration of 4 μg/mL. Inoculum cultures were prepared by standardizing the primary cultures to OD600=0.1 and then adding 20 μL of the adjusted primary culture per 1 mL CAMHB for clinical strains or CAMHB (supplemented with tetracycline at 100 μg/mL) for engineered strains, so that the final inoculum density was ˜10^5 colony forming units per milliliter. Diluted inoculum cultures were used to inoculate 25 μL per well in 96-well broth microdilution assay plates. The final volume of each well was 100 μL and contained a β-lactam at different concentrations, a BLIcompound at 4 μg/mL concentration, the bacterial culture at an OD600 of approximately 0.001 and when necessary tetracycline at 25 μg/mL.
Plates were incubated for 18-20 hours at 37° C. with aeration (200 rpm). Following incubation, growth was confirmed visually placing plates over a viewing apparatus (stand with a mirror underneath) and then OD600 was measured using a SpectraMax 340PC384 plate reader (Molecular Devices, Sunnyvale, Calif.). Growth was defined as turbidity that could be detected with the naked eye or achieving minimum OD600 of 0.1. MIC values were defined as the lowest concentration producing no visible turbidity.
The synergy MIC (sMIC) assay determines the concentration of the BLI required to potentiate the activity of a fixed concentration of a β-lactam antibiotic against β-lactamase producing bacterial strains. The experimental protocol was performed according to Clinical and Laboratory Standards Institute (CLSI) guidelines with modifications as described below (CLSI guidelines can be derived from the CLSI document M07-A9 published in January 2012: “Methods for Dilution Antimicrobial Susceptibility Tests for Bacteria That Grow Aerobically; Approved Standard-Ninth Edition”). […]

| Structure (SMILES) | activity against bacterial strains that express OXA-15, compared with Avibactam |
| --- | --- |
| N=C(N)NCc1nnc([C@@H]2CC[C@@H]3CN2C(=O)N3OS(=O)(=O)O)o1 [Compound 704, (2S,5R)-2-(5-(guanidinomethyl)-1,3,4-oxadiazol-2-yl)-7-oxo-1,6-diazabicyclo[3.2.1]octan-6-yl hydrogen sulfate] | more active than Avibactam |
| Nc1nnc([C@@H]2CC[C@@H]3CN2C(=O)N3OS(=O)(=O)O)o1 [Compound 707, (2S,5R)-2-(5-amino-1,3,4-oxadiazol-2-yl)-7-oxo-1,6-diazabicyclo[3.2.1]octan-6-yl hydrogen sulfate] | more active than Avibactam |
| N=C(N)N1CCC(c2nnc([C@@H]3CC[C@@H]4CN3C(=O)N4OS(=O)(=O)O)o2)CC1 [Compound 712, (2S,5R)-2-(5-(1-carbamimidoylpiperidin-4-yl)-1,3,4-oxadiazol-2-yl)-7-oxo-1,6-diazabicyclo[3.2.1]octan-6-yl hydrogen sulfate] | more active than Avibactam |
| O=C1N2C[C@@H](CC[C@H]2c2nnc(N3CCNCC3)o2)N1OS(=O)(=O)O [Compound 713, (2S,5R)-7-oxo-2-(5-(piperazin-1-yl)-1,3,4-oxadiazol-2-yl)-1,6-diazabicyclo[3.2.1]octan-6-yl hydrogen sulfate] | more active than Avibactam |
| N=C(N)NCCCc1nnc([C@@H]2CC[C@@H]3CN2C(=O)N3OS(=O)(=O)O)o1 [Compound 714, (2S,5R)-2-(5-(3-guanidinopropyl)-1,3,4-oxadiazol-2-yl)-7-oxo-1,6-diazabicyclo[3.2.1]octan-6-yl hydrogen sulfate] | more active than Avibactam |
| NCC(O)c1nnc([C@@H]2CC[C@@H]3CN2C(=O)N3OS(=O)(=O)O)o1 (stereo partly drawn) [Compound 715, (2S,5R)-2-(5-(2-amino-1-hydroxyethyl)-1,3,4-oxadiazol-2-yl)-7-oxo-1,6-diazabicyclo[3.2.1]octan-6-yl hydrogen sulfate] | more active than Avibactam |
| NCCNCCc1nnc([C@@H]2CC[C@@H]3CN2C(=O)N3OS(=O)(=O)O)o1 [Compound 716, (2S,5R)-2-(5-(2-((2-aminoethyl)amino)ethyl)-1,3,4-oxadiazol-2-yl)-7-oxo-1,6-diazabicyclo[3.2.1]octan-6-yl hydrogen sulfate] | more active than Avibactam |
| NCC(N)c1nnc([C@@H]2CC[C@@H]3CN2C(=O)N3OS(=O)(=O)O)o1 (stereo partly drawn) [Compound 717, (2S,5R)-2-(5-(1,2-diaminoethyl)-1,3,4-oxadiazol-2-yl)-7-oxo-1,6-diazabicyclo[3.2.1]octan-6-yl hydrogen sulfate] | more active than Avibactam |
| O=C1N2C[C@@H](CC[C@H]2c2nnc(C3CCNCC3)s2)N1OS(=O)(=O)O [Compound 719, (2S,5R)-7-oxo-2-(5-(piperidin-4-yl)-1,3,4-thiadiazol-2-yl)-1,6-diazabicyclo[3.2.1]octan-6-yl hydrogen sulfate] | more active than Avibactam |
| O=C1N2C[C@@H](CC[C@H]2c2nnc(CC3CNC3)o2)N1OS(=O)(=O)O [Compound 725, (2S,5R)-2-(5-(azetidin-3-ylmethyl)-1,3,4-oxadiazol-2-yl)-7-oxo-1,6-diazabicyclo[3.2.1]octan-6-yl hydrogen sulfate] | more active than Avibactam |
| NCC(O)Cc1nnc([C@@H]2CC[C@@H]3CN2C(=O)N3OS(=O)(=O)O)o1 (stereo partly drawn) [Compound 733, (2S,5R)-2-(5-(3-amino-2-hydroxypropyl)-1,3,4-oxadiazol-2-yl)-7-oxo-1,6-diazabicyclo[3.2.1]octan-6-yl hydrogen sulfate] | more active than Avibactam |
